In patent US20210145846A1 (Kashiv BioSciences, LLC, priority 2017, published 2021):
Values after ≈ are worked out from the molar mass of the structure shown. Like-named read-outs stand apart in the source and are kept apart here.

Key:
[1] = Storage stability of Formulations 1-3 (dl-α-tocopherol assay, total impurities); assay type: physicochemical; conditions: various storage conditions
Method: Three-week and four-week storage stabilities, as per Table 15, of Formulations 1-3 were determined under standard storage conditions of 5° C., storage at room temperature, and storage at 40° C./75% RH. The total impurities were less than 1% at the end of three- or four-week storage at 5° C., RT, and 40° C./75% RH.

[2] = Viscosities of the components in the prototype formulations; assay type: physicochemical; conditions: neat excipient
Description: Once injected into the muscle tissue, it forms a depot and the formulation components begin to diffuse into the surrounding tissue and the circulatory system. The rate of diffusion for each component depends on the solubility, permeability, and viscosity of the formulation in the local environment of the depot. Notwithstanding the complexity of the in vivo situation, and without wishing to be held to a particular theory, it is expected that the viscosity of the formulation is a critical factor that affects the diffusion of the formulation components from the site of injection, including from the point of view of ease of injection, diffusion into the muscle tissue, and rate of absorption.

[3] = test system: HR-positive metastatic breast cancer; conditions: cited from earlier work
[4] = cited from earlier work

## Cc1c(C)c2c(c(C)c1O)CCC(C)(CCCC(C)CCCC(C)CCCC(C)C)O2 (racemic) [dl-α-Tocopherol, dl-α-tocopherol]
[1]
  Stability of dl-α-Tocopherol in the formulations: unstable and susceptible to degradation

## OCc1ccccc1 [Benzyl alcohol]
[2]
  Viscosity (cp): 5.40 cp

## CCO [Ethyl alcohol (Ethanol), Ethanol]
[2]
  Viscosity (cp): 1.04 cp

## C[C@]12CC[C@@H]3c4ccc(O)cc4C[C@@H](CCCCCCCCC[S+]([O-])CCCC(F)(F)C(F)(F)F)[C@H]3[C@@H]1CC[C@@H]2O (stereo partly drawn) [Fulvestrant, 7α-[9-[(4,4,5,5,5-pentafluoropentyl)sulfinyl]nonyl]-estra-1,3,5(10)-triene-3,17β-diol]
[3]; fulvestrant 250 mg IM
  Median overall survival: 22.3 months
[3]; fulvestrant 500 mg IM
  Median overall survival: 26.4 months
[3]; fulvestrant 500 mg compared with 250 mg
  Progression-free survival (PFS): statistically significant increase
[4]; in Benzyl alcohol, 25° C.
  Solubility (mg/ml) at 25° C.: >200 mg/mL
[4]; in Benzyl benzoate, 25° C.
  Solubility (mg/ml) at 25° C.: 6.15 mg/mL (≈ 10.1 mM)
[4]; in Ethanol, 25° C.
  Solubility (mg/ml) at 25° C.: >200 mg/mL
[4]; in Ethyl oleate, 25° C.
  Solubility (mg/ml) at 25° C.: 1.25 mg/mL (≈ 2.06 mM)
[4]; in Isopropyl myristate, 25° C.
  Solubility (mg/ml) at 25° C.: 0.80 mg/mL (≈ 1.32 mM)
[4]; in Migloyl 810, 25° C.
  Solubility (mg/ml) at 25° C.: 3.06 mg/mL (≈ 5.04 mM)
[4]; in Migloyl 812, 25° C.
  Solubility (mg/ml) at 25° C.: 2.72 mg/mL (≈ 4.48 mM)
[4]; in Polyethylene glycol (PEG 400), 25° C.
  Solubility (mg/ml) at 25° C.: 22.5 mg/mL (≈ 37.1 mM)
[4]; in Propylene glycol, 25° C.
  Solubility (mg/ml) at 25° C.: 4.0 mg/mL (≈ 6.59 mM)
[4]; in SPAN ® 85, 25° C.
  Solubility (mg/ml) at 25° C.: 3.79 mg/mL (≈ 6.25 mM)
[4]; in Sesame oil, 25° C.
  Solubility (mg/ml) at 25° C.: 0.58 mg/mL (≈ 0.956 mM)

## CC(O)CO (stereo not shown) [Propylene glycol]
[2]
  Viscosity (cp): 42.00 cp

## sorbitan monolaurate [SPAN ® 20]
[2]
  Viscosity (cp): 1000-2000 cp
